# Reference: patent EP2308883A1, “New derivatives of thieno[2,3-b]pyridine and 5,6,7,8 tetrahydrothieno[2,3 b]quinoline in particular useful in the treatment of malaria” (priority 2009, dated 2011)
# System: panel of 22 purified kinases, including 4 P. falciparum kinases
# Assay: Small panel of 22 purified kinases
# Type: biochemical
# Conditions: at concentrations up to 10 µM
# Procedure: Compound No. 22 was also tested on a small panel of 22 purified kinases, including 4 P. falciparum kinases. […] To complement this selectivity study, compound No 22 was run on two large scale selectivity panels: Prof. P. Cohen's kinase selectivity panel (76 kinases) (Bain J, Plater L, Elliott M, Shapiro N, Hastie CJ, McLauchlan H et al. (2007). The selectivity of protein kinase inhibitors: a further update. Biochem J. 408: 297-315.) and the Ambit Biosciences interaction assay (402 kinases) (Karaman MW, Herrgard S, Treiber DK, Gallant P, Atteridge CE, Campbell BT, Chan KW, Ciceri P, Davis MI, Edeen PT, Faraoni R, Floyd M, Hunt JP, Lockhart DJ, Milanov ZV, Morrison MJ, Pallares G, Patel HK, Pritchard S, Wodicka LM, Zarrinkar PP. A quantitative analysis of kinase inhibitor selectivity. Nat Biotechnol. 2008 Jan;26(1):127-32.).
structure (smiles),measurement,value
"N#Cc1c(N)nc2sc(C(=O)c3cccc(Cl)c3)c(N)c2c1-c1ccccc1Cl [Compound 22, 3,6-diamino-2-(3-chlorobenzoyl)-4-(2-chlorophenyl)thieno[2,3-b]pyridine-5-carbonitrile]",inhibition of kinases of the panel besides PfGSK-3,no kinase was found to be inhibited
